According to paper PMC4138103 (PLoS ONE, 2014):
Like-named read-outs stand apart in the source and are kept apart here.

Tests used:
[1] = cited from earlier work
Sprague-Dawley rats [2] = assay: In-life observations, 28-day repeated dose oral toxicity study; assay type: in vivo, Rattus norvegicus
From the text: The experimental protocol followed the OECD 407 Guideline on Repeated dose 28-day oral toxicity study in rodents, which was enhanced for detection of endocrine, neurotoxicity, retinoid, bone and DNA damage endpoints. In order to improve the assessment of dose-response relationships the number of rats per gender per dose group was reduced to 5 and the amount of dose groups was increased to 8. To rapidly achieve the kinetic steady state, the total dose was divided into 6 daily loading doses and 3 weekly maintenance doses, which were calculated according to the formula [21]. [drawing 1] where [drawing 2] = loading dose
Loading doses were administered on days 0–5 and maintenance doses on days 10, 17 and 24 of the study. Selection of the highest dose was based on a pilot study.
Food and water consumption per cage was recorded once weekly. For determination of the stage of the estrous cycle vaginal smears were collected from female rats daily starting from day 23 of the study. This was done to ensure that the females were at the diestrous stage during necropsy.

Sprague-Dawley rats [3] = assay: Sperm analyses, cauda epididymis; assay type: in vivo, Rattus norvegicus; conditions: males
Experimental: Frozen right cauda epididymides were homogenized for 2 min using Ultra Turrax homogenizer (model T25 basic, IKA-WERKE GmbH, Staufen, Germany) in 20 ml 0.9% saline containing 0.05% Triton X-100 and 0.01% thiomersal. Homogenates were diluted to about 1×10^6 sperms/ml, and counts from 4 hemocytometer chambers were counted and averaged.

Sprague-Dawley rats [4] = assay: Brain amino acid analyses; assay type: in vivo, Rattus norvegicus; parameters: key to Glutathione, trend over total doses: D: significant dose response (for results, see Table 2); T: significant trend
Experimental: The right hemisphere of cerebrum was rapidly weighed and homogenized in ice cold 7% HClO4 [35] using a glass/teflon Potter-Elvehjem homogenizer (Schwaben Prazision Nordlingen type L43). α-Amino adipic acid was used as internal standard. Samples were neutralized to pH 6.5–7.5 with ice cold KOH/HCl and centrifuged for 20 min at 20 000 g and 4°C in a Sorvall RMC-14-micro centrifuge. Pellets were frozen at −40°C for later protein determination by the BCA-assay. Supernatants were stored at −40°C, filtered with Nylon-66 micro filters (mesh 0.22 µm; Nalgene) prior to HPLC analysis.
Total amino acids in extracts were analyzed, using a reversed-phase HPLC (ChromSpher 5 C18 column; length 25 cm, inner diameter 4.6 mm; Varian) fitted with a fluorescence detector (Shimadzu, Kyoto, Japan), after derivatization with o-phthaldialdehyde (OPA; Sigma). […] Each sample was eluted for 45 min with a flow rate of 0.4 ml/min. A mixture of the amino acids of interest was run as external standards at 100 µM. L-Amino acid standards for aspartic acid, glutamic acid, serine, glutamine, glycine and alanine] were obtained from Pierce (Rockford, Ill., USA), whereas taurine, γ-amino butyric acid, glutathione and α-amino adipic acid standards were from Sigma-Aldrich. Chromatograms were analyzed using the software Lab Solutions (Shimadzu).

[5] = brain, females, total dose 10 mg/kg bw, n 1
[6] = brain, females, total dose 30 mg/kg bw
[7] = brain, females, total dose 300 mg/kg bw
[8] = brain, females, total dose 1000 mg/kg bw
[9] = brain, males, total dose 10 mg/kg bw
[10] = brain, males, total dose 30 mg/kg bw
[11] = brain, males, total dose 300 mg/kg bw
[12] = brain, males, total dose 1000 mg/kg bw

SMILES: Clc1cc(Cl)c(-c2cc(Cl)c(Cl)c(Cl)c2Cl)cc1Cl [PCB 180, 2,2′,3′,4,4′,5,5′-heptachlorobiphenyl]
- Elimination half-life ([1]; adult humans, estimated): 11.5 years
- Elimination half-life ([1]; early adolescent children): 9.8 years
- Body weight development (Sprague-Dawley rats [2]; 1700 mg/kg bw, both genders, during loading dosing, recovered completely by end of study): retarded
- Feed consumption, maximal temporary reduction (Sprague-Dawley rats [2]; females, three highest doses, during loading dosing): about 20%
- Feed consumption, maximal temporary reduction (Sprague-Dawley rats [2]; males, two highest doses, during loading dosing): about 25%
- Water consumption (Sprague-Dawley rats [2]; rat, in vivo): unaffected
- Mortality (Sprague-Dawley rats [2]; total doses 3-1700 mg/kg bw, both genders): no mortality
- Cauda epididymal sperm density (Sprague-Dawley rats [3]; 1700 mg/kg bw vs control): not affected
- Sperm density (Sprague-Dawley rats [3]; total dose 1700 mg/kg bw, cauda epididymis, group mean): 691 106/g tissue
- Sperm count (Sprague-Dawley rats [3]; total dose 1700 mg/kg bw, group mean): 94.0 106/cauda epididymis
- Amino acid concentration in cerebrum vs controls (Sprague-Dawley rats [4]; both genders, 10, 30, 300 or 1000 mg/kg bw): did not show significant differences
- Alanine (Sprague-Dawley rats [4]; [5]): 14.25 nmol/mg protein
- Aspartate (Sprague-Dawley rats [4]; [5]): 71.05 nmol/mg protein
- Glutamate (Sprague-Dawley rats [4]; [5]): 124 nmol/mg protein
- Glutamine (Sprague-Dawley rats [4]; [5]): 85.95 nmol/mg protein
- Glutathione (Sprague-Dawley rats [4]; [5]): 16.96 nmol/mg protein
- Glycine (Sprague-Dawley rats [4]; [5]): 43.99 nmol/mg protein
- Serine (Sprague-Dawley rats [4]; [5]): 17.81 nmol/mg protein
- Taurine (Sprague-Dawley rats [4]; [5]): 113.1 nmol/mg protein
- γ-Amino butyric acid (Sprague-Dawley rats [4]; [5]): 42.71 nmol/mg protein
- Alanine (Sprague-Dawley rats [4]; [6]): 12.67 nmol/mg protein
- Aspartate (Sprague-Dawley rats [4]; [6]): 60.52 nmol/mg protein
- Glutamate (Sprague-Dawley rats [4]; [6]): 110 nmol/mg protein
- Glutamine (Sprague-Dawley rats [4]; [6]): 82.24 nmol/mg protein
- Glutathione (Sprague-Dawley rats [4]; [6]): 12.19 nmol/mg protein
- Glycine (Sprague-Dawley rats [4]; [6]): 43.93 nmol/mg protein
- Serine (Sprague-Dawley rats [4]; [6]): 17.02 nmol/mg protein
- Taurine (Sprague-Dawley rats [4]; [6]): 98.12 nmol/mg protein
- γ-Amino butyric acid (Sprague-Dawley rats [4]; [6]): 40.16 nmol/mg protein
- Alanine (Sprague-Dawley rats [4]; [7]): 13.51 nmol/mg protein
- Aspartate (Sprague-Dawley rats [4]; [7]): 61.77 nmol/mg protein
- Glutamate (Sprague-Dawley rats [4]; [7]): 111 nmol/mg protein
- Glutamine (Sprague-Dawley rats [4]; [7]): 87.85 nmol/mg protein
- Glutathione (Sprague-Dawley rats [4]; [7]): 11.70 nmol/mg protein
- Glycine (Sprague-Dawley rats [4]; [7]): 48.50 nmol/mg protein
- Serine (Sprague-Dawley rats [4]; [7]): 17.18 nmol/mg protein
- Taurine (Sprague-Dawley rats [4]; [7]): 95.21 nmol/mg protein
- γ-Amino butyric acid (Sprague-Dawley rats [4]; [7]): 41.47 nmol/mg protein
- Alanine (Sprague-Dawley rats [4]; [8]): 13.04 nmol/mg protein
- Aspartate (Sprague-Dawley rats [4]; [8]): 59.40 nmol/mg protein
- Glutamate (Sprague-Dawley rats [4]; [8]): 109 nmol/mg protein
- Glutamine (Sprague-Dawley rats [4]; [8]): 79.65 nmol/mg protein
- Glutathione (Sprague-Dawley rats [4]; [8]): 10.79 nmol/mg protein
- Glycine (Sprague-Dawley rats [4]; [8]): 43.12 nmol/mg protein
- Serine (Sprague-Dawley rats [4]; [8]): 16.71 nmol/mg protein
- Taurine (Sprague-Dawley rats [4]; [8]): 97.62 nmol/mg protein
- γ-Amino butyric acid (Sprague-Dawley rats [4]; [8]): 40.90 nmol/mg protein
- Alanine (Sprague-Dawley rats [4]; [9]): 11.68 nmol/mg protein
- Aspartate (Sprague-Dawley rats [4]; [9]): 59.00 nmol/mg protein
- Glutamate (Sprague-Dawley rats [4]; [9]): 110 nmol/mg protein
- Glutamine (Sprague-Dawley rats [4]; [9]): 81.50 nmol/mg protein
- Glutathione (Sprague-Dawley rats [4]; [9]): 12.48 nmol/mg protein
- Glycine (Sprague-Dawley rats [4]; [9]): 38.78 nmol/mg protein
- Serine (Sprague-Dawley rats [4]; [9]): 17.39 nmol/mg protein
- Taurine (Sprague-Dawley rats [4]; [9]): 93.04 nmol/mg protein
- γ-Amino butyric acid (Sprague-Dawley rats [4]; [9]): 36.29 nmol/mg protein
- Alanine (Sprague-Dawley rats [4]; [10]): 12.16 nmol/mg protein
- Aspartate (Sprague-Dawley rats [4]; [10]): 60.01 nmol/mg protein
- Glutamate (Sprague-Dawley rats [4]; [10]): 106 nmol/mg protein
- Glutamine (Sprague-Dawley rats [4]; [10]): 68.58 nmol/mg protein
- Glutathione (Sprague-Dawley rats [4]; [10]): 11.48 nmol/mg protein
- Glycine (Sprague-Dawley rats [4]; [10]): 38.07 nmol/mg protein
- Serine (Sprague-Dawley rats [4]; [10]): 16.11 nmol/mg protein
- Taurine (Sprague-Dawley rats [4]; [10]): 93.22 nmol/mg protein
- γ-Amino butyric acid (Sprague-Dawley rats [4]; [10]): 36.82 nmol/mg protein
- Alanine (Sprague-Dawley rats [4]; [11]): 13.02 nmol/mg protein
- Aspartate (Sprague-Dawley rats [4]; [11]): 58.39 nmol/mg protein
- Glutamate (Sprague-Dawley rats [4]; [11]): 111 nmol/mg protein
- Glutamine (Sprague-Dawley rats [4]; [11]): 76.57 nmol/mg protein
- Glutathione (Sprague-Dawley rats [4]; [11]): 10.37 nmol/mg protein
- Glycine (Sprague-Dawley rats [4]; [11]): 39.90 nmol/mg protein
- Serine (Sprague-Dawley rats [4]; [11]): 17.20 nmol/mg protein
- Taurine (Sprague-Dawley rats [4]; [11]): 95.86 nmol/mg protein
- γ-Amino butyric acid (Sprague-Dawley rats [4]; [11]): 36.14 nmol/mg protein
- Alanine (Sprague-Dawley rats [4]; [12]): 12.29 nmol/mg protein
- Aspartate (Sprague-Dawley rats [4]; [12]): 54.56 nmol/mg protein
- Glutamate (Sprague-Dawley rats [4]; [12]): 103 nmol/mg protein
- Glutamine (Sprague-Dawley rats [4]; [12]): 72.52 nmol/mg protein
- Glutathione (Sprague-Dawley rats [4]; [12]): 9.97 nmol/mg protein
- Glycine (Sprague-Dawley rats [4]; [12]): 40.40 nmol/mg protein
- Serine (Sprague-Dawley rats [4]; [12]): 16.45 nmol/mg protein
- Taurine (Sprague-Dawley rats [4]; [12]): 88.63 nmol/mg protein
- γ-Amino butyric acid (Sprague-Dawley rats [4]; [12]): 35.69 nmol/mg protein
- Glutathione, trend over total doses (Sprague-Dawley rats [4]; brain, males, total doses 0-1000 mg/kg bw): T
- Cerebrum glutathione concentration, max. decrease (Sprague-Dawley rats [4]; males, at 1000 mg/kg): 18%
